What all share (type): biochemical
One assay has as its target CDK2/CyclinE1 (Homo sapiens (Human), UniProt P24941). As to the kind of experiment: CDK2/CyclinE1 kinase inhibitory activity (Caliper mobility shift). The settings on record: read-out: CDK2/Cyclin El IC50.
A further assay addresses CDK6/CyclinD1 (Homo sapiens (Human), UniProt Q00534). The experiment in a line: CDK6/CyclinD1 kinase inhibitory activity (Caliper mobility shift). The settings on record: read-out: CDK6/Cyclin D1 IC50.
The next assay deals with CDK1/CyclinB (Homo sapiens (Human), UniProt P06493). As to the kind of experiment: CDK1/CyclinB kinase inhibitory activity (Caliper mobility shift). The settings on record: read-out: CDK1/Cyclin B1 IC50.
Chain of CDK1/CyclinB (P06493 whole entry): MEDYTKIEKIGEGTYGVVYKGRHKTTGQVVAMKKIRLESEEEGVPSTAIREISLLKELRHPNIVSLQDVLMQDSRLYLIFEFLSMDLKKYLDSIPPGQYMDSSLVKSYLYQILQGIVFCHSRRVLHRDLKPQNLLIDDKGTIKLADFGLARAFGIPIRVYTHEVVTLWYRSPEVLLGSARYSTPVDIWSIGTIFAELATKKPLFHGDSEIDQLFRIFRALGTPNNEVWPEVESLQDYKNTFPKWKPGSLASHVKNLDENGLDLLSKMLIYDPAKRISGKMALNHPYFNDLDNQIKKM
Chain of CDK1/CyclinB (P14635 whole entry partner): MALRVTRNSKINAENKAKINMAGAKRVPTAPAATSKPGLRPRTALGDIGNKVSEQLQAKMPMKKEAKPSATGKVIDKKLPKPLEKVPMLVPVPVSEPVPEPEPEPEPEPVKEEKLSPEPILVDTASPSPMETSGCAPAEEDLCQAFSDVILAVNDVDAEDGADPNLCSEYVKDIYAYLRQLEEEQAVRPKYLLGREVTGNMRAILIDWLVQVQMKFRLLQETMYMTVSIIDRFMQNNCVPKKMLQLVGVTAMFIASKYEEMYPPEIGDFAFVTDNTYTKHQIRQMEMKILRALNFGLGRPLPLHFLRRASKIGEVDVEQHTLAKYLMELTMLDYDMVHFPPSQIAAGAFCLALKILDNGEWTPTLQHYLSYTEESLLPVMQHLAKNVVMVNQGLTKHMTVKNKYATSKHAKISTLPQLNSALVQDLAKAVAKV
For the next assay, the target named is CDK4/Cyclin D1 (Homo sapiens (Human), UniProt P11802). As to the kind of experiment: CDK4/CyclinD1 kinase inhibitory activity (Caliper mobility shift).
Chain of CDK4/Cyclin D1 (P11802 whole entry): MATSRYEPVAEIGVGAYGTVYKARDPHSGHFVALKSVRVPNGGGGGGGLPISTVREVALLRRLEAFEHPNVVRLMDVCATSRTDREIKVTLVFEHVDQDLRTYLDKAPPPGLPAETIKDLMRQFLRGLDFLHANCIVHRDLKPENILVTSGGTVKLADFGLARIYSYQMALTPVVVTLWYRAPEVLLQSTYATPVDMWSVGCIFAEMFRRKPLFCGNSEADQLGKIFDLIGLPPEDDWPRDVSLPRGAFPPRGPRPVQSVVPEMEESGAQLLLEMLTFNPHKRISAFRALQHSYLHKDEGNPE
Chain of CDK4/Cyclin D1 (P24385 whole entry partner): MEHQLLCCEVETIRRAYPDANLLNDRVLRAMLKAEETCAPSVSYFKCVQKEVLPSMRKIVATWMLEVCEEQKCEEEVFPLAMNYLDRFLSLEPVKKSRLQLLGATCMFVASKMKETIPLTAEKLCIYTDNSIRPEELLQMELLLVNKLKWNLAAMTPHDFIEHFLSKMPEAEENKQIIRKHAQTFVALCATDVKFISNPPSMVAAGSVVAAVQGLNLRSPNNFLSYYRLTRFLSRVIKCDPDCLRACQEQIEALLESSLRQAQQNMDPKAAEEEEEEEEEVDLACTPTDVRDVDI
For a further assay, the target named is CDK7/CyclinH/MAT1 (Homo sapiens (Human), UniProt P50613). The experiment in a line: CDK7/CyclinH/MAT1 kinase inhibitory activity (Caliper mobility shift).
Chain of CDK7/CyclinH/MAT1 (P50613 whole entry): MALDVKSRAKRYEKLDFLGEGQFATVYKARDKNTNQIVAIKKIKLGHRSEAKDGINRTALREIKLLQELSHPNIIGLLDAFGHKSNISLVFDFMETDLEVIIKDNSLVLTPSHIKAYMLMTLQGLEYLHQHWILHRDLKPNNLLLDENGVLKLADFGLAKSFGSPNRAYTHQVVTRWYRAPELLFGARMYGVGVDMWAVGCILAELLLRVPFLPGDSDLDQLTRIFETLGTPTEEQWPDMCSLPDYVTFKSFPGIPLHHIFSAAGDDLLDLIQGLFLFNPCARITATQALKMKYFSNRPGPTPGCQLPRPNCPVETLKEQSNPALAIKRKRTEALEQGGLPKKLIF
Chain of CDK7/CyclinH/MAT1 (P51946 whole entry partner): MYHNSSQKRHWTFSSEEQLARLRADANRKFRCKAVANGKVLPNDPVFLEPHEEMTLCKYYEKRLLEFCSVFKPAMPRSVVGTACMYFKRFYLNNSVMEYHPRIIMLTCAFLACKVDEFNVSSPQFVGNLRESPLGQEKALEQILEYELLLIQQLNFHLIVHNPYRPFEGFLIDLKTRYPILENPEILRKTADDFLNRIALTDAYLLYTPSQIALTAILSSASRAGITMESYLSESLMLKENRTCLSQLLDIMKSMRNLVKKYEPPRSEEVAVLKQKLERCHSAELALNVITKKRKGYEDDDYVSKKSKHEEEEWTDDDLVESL
Chain of CDK7/CyclinH/MAT1 (P51948 whole entry partner): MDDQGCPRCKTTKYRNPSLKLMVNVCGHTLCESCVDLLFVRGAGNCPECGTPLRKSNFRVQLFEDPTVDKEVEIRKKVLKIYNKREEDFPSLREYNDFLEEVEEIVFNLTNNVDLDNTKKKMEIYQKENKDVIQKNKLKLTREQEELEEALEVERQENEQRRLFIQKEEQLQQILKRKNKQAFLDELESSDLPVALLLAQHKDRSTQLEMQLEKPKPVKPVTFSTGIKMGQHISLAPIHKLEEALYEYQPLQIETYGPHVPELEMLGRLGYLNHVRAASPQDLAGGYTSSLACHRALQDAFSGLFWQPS
For another assay, the target named is CDK9/CyclinT1 (Homo sapiens (Human), UniProt P50750). As to the kind of experiment: CDK9/CyclinT1 kinase inhibitory activity (Caliper mobility shift). The settings on record: read-out: CDK9/Cyclin T1 IC50.
Chain of CDK9/CyclinT1 (P50750 whole entry): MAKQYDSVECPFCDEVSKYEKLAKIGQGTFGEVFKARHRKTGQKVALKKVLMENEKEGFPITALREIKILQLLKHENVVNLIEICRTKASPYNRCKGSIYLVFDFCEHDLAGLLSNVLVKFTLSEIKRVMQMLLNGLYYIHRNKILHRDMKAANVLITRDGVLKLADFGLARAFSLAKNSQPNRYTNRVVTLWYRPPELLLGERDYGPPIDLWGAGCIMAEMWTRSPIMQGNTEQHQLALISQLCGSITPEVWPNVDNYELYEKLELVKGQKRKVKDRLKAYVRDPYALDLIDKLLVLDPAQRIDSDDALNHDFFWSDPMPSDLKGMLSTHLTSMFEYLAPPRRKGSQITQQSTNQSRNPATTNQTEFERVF
Chain of CDK9/CyclinT1 (O60563 whole entry partner): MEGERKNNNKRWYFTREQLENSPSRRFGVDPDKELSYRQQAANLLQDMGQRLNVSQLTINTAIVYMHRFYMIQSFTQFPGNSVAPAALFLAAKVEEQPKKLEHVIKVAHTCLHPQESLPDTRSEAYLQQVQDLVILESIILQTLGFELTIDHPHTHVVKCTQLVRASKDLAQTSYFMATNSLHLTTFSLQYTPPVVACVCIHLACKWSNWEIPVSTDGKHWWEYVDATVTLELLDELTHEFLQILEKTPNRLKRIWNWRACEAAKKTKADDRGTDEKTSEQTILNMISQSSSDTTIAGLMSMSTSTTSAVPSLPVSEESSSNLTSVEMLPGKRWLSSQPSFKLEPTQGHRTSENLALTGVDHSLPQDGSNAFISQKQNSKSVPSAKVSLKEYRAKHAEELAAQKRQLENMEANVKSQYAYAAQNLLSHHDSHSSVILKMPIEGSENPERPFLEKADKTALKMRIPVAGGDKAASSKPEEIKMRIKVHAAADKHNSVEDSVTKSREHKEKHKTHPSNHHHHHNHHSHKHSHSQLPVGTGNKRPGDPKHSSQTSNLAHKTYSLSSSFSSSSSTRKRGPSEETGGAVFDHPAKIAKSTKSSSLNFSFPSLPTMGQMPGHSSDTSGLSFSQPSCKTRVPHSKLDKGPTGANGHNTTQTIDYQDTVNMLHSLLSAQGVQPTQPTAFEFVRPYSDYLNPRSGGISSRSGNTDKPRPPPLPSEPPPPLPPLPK

Chain of CDK6/CyclinD1 (Q00534 whole entry): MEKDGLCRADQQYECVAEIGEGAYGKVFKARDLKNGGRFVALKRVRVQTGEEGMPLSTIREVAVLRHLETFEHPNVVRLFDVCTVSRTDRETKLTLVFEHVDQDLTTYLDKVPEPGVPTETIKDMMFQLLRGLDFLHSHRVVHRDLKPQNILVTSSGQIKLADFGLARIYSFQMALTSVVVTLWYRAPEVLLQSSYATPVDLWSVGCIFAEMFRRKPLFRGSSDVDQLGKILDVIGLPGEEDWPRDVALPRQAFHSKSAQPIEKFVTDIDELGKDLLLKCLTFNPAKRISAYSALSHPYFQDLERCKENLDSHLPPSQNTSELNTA
Chain of CDK6/CyclinD1 (P24385 whole entry partner): as the sequence (P24385 whole entry partner) above

Regarding `CC(C)NS(=O)(=O)c1ccc(Nc2ncc(C#N)c(OC3CCCC3(C)O)n2)cc1` (single isomer, unassigned) [Example 35a], the IC50 on CDK2/CyclinE1 was < 10 nM; at CDK6/CyclinD1, 10 to 100 nM; on CDK1/CyclinB it was < 10 nM; at CDK4/Cyclin D1 it was 10 to 100 nM; on CDK7/CyclinH/MAT1 it was 10 to 100 nM; at CDK9/CyclinT1 it was 10 to 100 nM.

`CC1(COc2nc(NC3CCN(S(N)(=O)=O)CC3)ncc2C#N)CCCC1` [Example 56]: the IC50 is < 10 nM at CDK2/CyclinE1; 10 to 100 nM on CDK6/CyclinD1; < 10 nM on CDK1/CyclinB; < 10 nM on CDK4/Cyclin D1; 100 to 1000 nM at CDK7/CyclinH/MAT1; 100 to 1000 nM at CDK9/CyclinT1.

As to `CNS(=O)(=O)c1ccc(Nc2ncc(Cl)c(OC3CCCC3O)n2)cc1` (single isomer, unassigned) [Example 137a], the IC50 at CDK2/CyclinE1 is < 10 nM; on CDK6/CyclinD1, 10 to 100 nM; at CDK1/CyclinB it was 10 to 100 nM; on CDK4/Cyclin D1 it was 100 to 1000 nM; on CDK7/CyclinH/MAT1, 100 to 1000 nM; on CDK9/CyclinT1 it was 100 to 1000 nM.

For the molecule `CN1CCC(NS(=O)(=O)c2ccc(Nc3ncc(Cl)c(OC4CCCC4O)n3)cc2)CC1` (single isomer, unassigned) [Example 139a], the IC50 at CDK2/CyclinE1 was < 10 nM; on CDK6/CyclinD1 it was 10 to 100 nM; on CDK1/CyclinB it was 10 to 100 nM; on CDK4/Cyclin D1, 100 to 1000 nM; on CDK7/CyclinH/MAT1 it was 100 to 1000 nM; on CDK9/CyclinT1, 100 to 1000 nM.

`CC(C)NS(=O)(=O)c1ccc(Nc2ncc(C#N)c(OC3CCC[C@H]3O)n2)cc1` (mixture of isomers) [Example 27]: the IC50 at CDK2/CyclinE1 was < 10 nM; on CDK6/CyclinD1 it was 100 to 1000 nM; at CDK1/CyclinB, 10 to 100 nM; on CDK4/Cyclin D1, 100 to 1000 nM; at CDK7/CyclinH/MAT1, ≥ 1000 nM; on CDK9/CyclinT1, 100 to 1000 nM.

Take `[2H]C([2H])([2H])NS(=O)(=O)c1ccc(Nc2ncc(C(F)(F)F)c(O[C@H]3CCOC[C@H]3O)n2)cc1` (single isomer, unassigned) [Example 100a, cis-4-((4-((3-hydroxytetrahydro-2H-pyran-4-yl)oxy)-5-(trifluoromethyl)pyrimidin-2-yl)amino)-N-(methyl-d3)benzenesulfonamide]: the IC50 at CDK2/CyclinE1 was < 10 nM; on CDK6/CyclinD1, 100 to 1000 nM; on CDK1/CyclinB it was 10 to 100 nM; on CDK4/Cyclin D1 it was 100 to 1000 nM; at CDK7/CyclinH/MAT1 it was 100 to 1000 nM; on CDK9/CyclinT1, 100 to 1000 nM.

As for `N#Cc1cnc(Nc2ccc(S(N)(=O)=O)cc2)nc1N1CCCCC1` [Example 65, 4-((5-cyano-4-(piperidin-1-yl)pyrimidin-2-yl)amino) benzenesulfonamide], the IC50 at CDK2/CyclinE1 was < 10 nM; on CDK6/CyclinD1 it was 100 to 1000 nM; on CDK1/CyclinB, 10 to 100 nM; on CDK4/Cyclin D1, 10 to 100 nM; on CDK7/CyclinH/MAT1, ≥ 1000 nM; on CDK9/CyclinT1 it was 100 to 1000 nM.

Turning to `Cn1cnc(S(=O)(=O)N2CCC(Nc3ncc(C#N)c(OC4CCCC4(C)O)n3)CC2)c1` (single isomer, unassigned) [Example 50a], the IC50 is < 10 nM on CDK2/CyclinE1; < 10 nM at CDK6/CyclinD1; < 10 nM on CDK1/CyclinB; < 10 nM at CDK4/Cyclin D1; 100 to 1000 nM at CDK7/CyclinH/MAT1; 100 to 1000 nM on CDK9/CyclinT1.

On to `CC1(O)CC(F)(F)CCC1Oc1nc(NC2CCN(S(C)(=O)=O)CC2)ncc1C#N` (single isomer, unassigned) [Example 47b], for which the IC50 at CDK2/CyclinE1 is 100 to 1000 nM; on CDK6/CyclinD1, 100 to 1000 nM; at CDK1/CyclinB, ≥ 1000 nM; on CDK4/Cyclin D1 it was 100 to 1000 nM; on CDK7/CyclinH/MAT1 it was ≥ 1000 nM; on CDK9/CyclinT1, ≥ 1000 nM.

For the molecule `CNS(=O)(=O)c1ccc(Nc2ncc(C(F)(F)F)c(OC3CCOCC3O)n2)cc1` (single isomer, unassigned) [Example 116a], the IC50 at CDK2/CyclinE1 was < 10 nM; on CDK6/CyclinD1 it was 100 to 1000 nM; on CDK1/CyclinB, 10 to 100 nM; at CDK4/Cyclin D1, 100 to 1000 nM; on CDK7/CyclinH/MAT1, 100 to 1000 nM; at CDK9/CyclinT1, 100 to 1000 nM.

For the molecule `Cc1cccc(-c2nc(Nc3ccc(S(N)(=O)=O)cc3)ncc2C#N)c1` [Example 94], the IC50 on CDK2/CyclinE1 was < 10 nM; on CDK6/CyclinD1, 100 to 1000 nM; on CDK1/CyclinB it was 10 to 100 nM; at CDK4/Cyclin D1, 10 to 100 nM; on CDK7/CyclinH/MAT1, ≥ 1000 nM; on CDK9/CyclinT1 it was 10 to 100 nM.

For the molecule `CC1(COc2nc(NC3CCN(S(C)(=O)=O)CC3)ncc2C#N)CCC1` [Example 53], the IC50 on CDK2/CyclinE1 was < 10 nM; at CDK6/CyclinD1, 10 to 100 nM; at CDK1/CyclinB, 10 to 100 nM; at CDK4/Cyclin D1, < 10 nM; at CDK7/CyclinH/MAT1 it was 100 to 1000 nM; on CDK9/CyclinT1, 100 to 1000 nM.

For `COCCS(=O)(=O)N1CCC(Nc2ncc(C#N)c(OCC3(C)CCCC3)n2)CC1` [Example 58], the IC50 was < 10 nM on CDK2/CyclinE1; 10 to 100 nM on CDK6/CyclinD1; 10 to 100 nM at CDK1/CyclinB; < 10 nM at CDK4/Cyclin D1; 100 to 1000 nM on CDK7/CyclinH/MAT1; 100 to 1000 nM on CDK9/CyclinT1.

In the case of `CC1(COc2nc(NC3CCN(S(=O)(=O)CCO)CC3)ncc2C#N)CCCC1` [Example 57], the IC50 is < 10 nM at CDK2/CyclinE1; < 10 nM on CDK6/CyclinD1; < 10 nM on CDK1/CyclinB; < 10 nM at CDK4/Cyclin D1; 100 to 1000 nM at CDK7/CyclinH/MAT1; 10 to 100 nM on CDK9/CyclinT1.

In the case of `Cn1cc(S(=O)(=O)N2CCC(Nc3ncc(C#N)c(OC4CCCC4(C)O)n3)CC2)cn1` (single isomer, unassigned) [Example 48a], the IC50 at CDK2/CyclinE1 is < 10 nM; on CDK6/CyclinD1 it was < 10 nM; at CDK1/CyclinB, < 10 nM; at CDK4/Cyclin D1, < 10 nM; at CDK7/CyclinH/MAT1, 10 to 100 nM; at CDK9/CyclinT1 it was 100 to 1000 nM.

As for `N#Cc1cnc(Nc2ccc(S(N)(=O)=O)cc2)nc1O[C@@H]1CCCC[C@@H]1O` (single isomer, unassigned) [Example 2a, cis-4-((5-cyano-4-((2-hydroxycyclohexyl)oxy)pyrimidin-2-yl)amino)benzenesulfonamide], the IC50 at CDK2/CyclinE1 was < 10 nM; at CDK6/CyclinD1 it was 10 to 100 nM; on CDK1/CyclinB, 10 to 100 nM; on CDK4/Cyclin D1 it was 10 to 100 nM; at CDK7/CyclinH/MAT1 it was ≥ 1000 nM; at CDK9/CyclinT1 it was 100 to 1000 nM.

Consider `CNS(=O)(=O)c1ccc(Nc2ncc(C#N)c(OC3CCC[C@H]3O)n2)cc1` (mixture of isomers) [Example 26], for which the IC50 at CDK2/CyclinE1 is < 10 nM; on CDK6/CyclinD1 it was 100 to 1000 nM; on CDK1/CyclinB it was 100 to 1000 nM; at CDK4/Cyclin D1 it was 100 to 1000 nM; at CDK7/CyclinH/MAT1, ≥ 1000 nM; on CDK9/CyclinT1 it was ≥ 1000 nM.

With `N#Cc1cnc(Nc2ccc(S(N)(=O)=O)cc2)nc1N1CCC[C@H](F)C1` [Example 81], the IC50 was 10 to 100 nM on CDK2/CyclinE1; 100 to 1000 nM at CDK6/CyclinD1; 100 to 1000 nM on CDK1/CyclinB; 10 to 100 nM on CDK4/Cyclin D1; ≥ 1000 nM on CDK7/CyclinH/MAT1; 100 to 1000 nM at CDK9/CyclinT1.

Turning to `NS(=O)(=O)c1ccc(Nc2ncc(C(F)(F)F)c(O[C@@H]3CCC[C@@H]3O)n2)cc1` (single isomer, unassigned) [Example 99a, cis-4-((4-((2-hydroxycyclopentyl)oxy)-5-(trifluoromethyl)pyrimidin-2-yl)amino)benzenesulfonamide], the IC50 was < 10 nM on CDK2/CyclinE1; 10 to 100 nM at CDK6/CyclinD1; 10 to 100 nM on CDK1/CyclinB; 100 to 1000 nM at CDK4/Cyclin D1; 100 to 1000 nM on CDK7/CyclinH/MAT1; 10 to 100 nM on CDK9/CyclinT1.

With `C[C@]1(O)COC[C@H]1Oc1nc(NC2CCN(S(C)(=O)=O)CC2)ncc1C(F)(F)F` (relative stereo) [Example 104a, cis-3-methyl-4-((2-((1-(methylsulfonyl)piperidin-4-yl)amino)-5-(trifluoromethyl)pyrimidin-4-yl)oxy)tetrahydrofuran-3-ol], the IC50 on CDK2/CyclinE1 was < 10 nM; on CDK6/CyclinD1, 10 to 100 nM; on CDK1/CyclinB it was 10 to 100 nM; at CDK4/Cyclin D1 it was 10 to 100 nM; at CDK7/CyclinH/MAT1 it was 10 to 100 nM; on CDK9/CyclinT1 it was 100 to 1000 nM.

For the molecule `[2H]C([2H])([2H])NS(=O)(=O)c1ccc(Nc2ncc(Cl)c(OC3COCC3(C)O)n2)cc1` (single isomer, unassigned) [Example 140a], the IC50 on CDK2/CyclinE1 was < 10 nM; on CDK6/CyclinD1 it was 100 to 1000 nM; at CDK1/CyclinB, 10 to 100 nM; at CDK4/Cyclin D1, 100 to 1000 nM; on CDK7/CyclinH/MAT1, 100 to 1000 nM; at CDK9/CyclinT1, 100 to 1000 nM.

`C[C@]1(O)CC(F)(F)C[C@H]1Oc1nc(NC2CCN(S(C)(=O)=O)CC2)ncc1C#N` (relative stereo) [Example 4a, cis-4-((4,4-difluoro-2-hydroxy-2-methylcyclopentyl)oxy)-2-((1-(methylsulfonyl)piperidin-4-yl)amino)pyrimidine-5-carbonitrile]: the IC50 is < 10 nM at CDK2/CyclinE1; < 10 nM on CDK6/CyclinD1; 10 to 100 nM at CDK1/CyclinB; 10 to 100 nM at CDK4/Cyclin D1; 10 to 100 nM on CDK7/CyclinH/MAT1; 100 to 1000 nM on CDK9/CyclinT1.

Turning to `CNS(=O)(=O)c1ccc(Nc2ncc(Br)c(OC3CCCC3O)n2)cc1` (single isomer, unassigned) [Example 142a], the IC50 is < 10 nM at CDK2/CyclinE1; 10 to 100 nM on CDK6/CyclinD1; 10 to 100 nM on CDK1/CyclinB; 100 to 1000 nM at CDK4/Cyclin D1; 100 to 1000 nM on CDK7/CyclinH/MAT1; 100 to 1000 nM at CDK9/CyclinT1.

Source of the values: patent US20240166635A1, “AMINOHETEROARYL KINASE INHIBITORS” (Anrui Biomedical Technology (Guangzhou) Co.,Ltd., priority 2020, published 2024).
